Measurements reported in paper PMC7587962, “Evaluation of Cytotoxicity and α-Glucosidase Inhibitory Activity of Amide and Polyamino-Derivatives of Lupane Triterpenoids” (Molecules, 2020).
Where two headings read alike, the source gives them in different places.

Tests used:
SF-268 = experiment: NCI-60 SRB screen: CNS cancer SF-268; format: cell-based, human; details: SF-268
HOP-62 = experiment: NCI-60 SRB screen: non-small cell lung cancer HOP-62; format: cell-based, human; details: HOP-62
HS 578T = experiment: NCI-60 SRB screen: breast cancer HS 578T; format: cell-based, human; details: HS 578T
CAKI-1 = experiment: NCI-60 SRB screen: renal cancer CAKI-1; format: cell-based, human; details: CAKI-1
HCT-15 = experiment: NCI-60 SRB screen: colon cancer HCT-15; format: cell-based, human; details: HCT-15
SW-620 = experiment: NCI-60 SRB screen: colon cancer SW-620; format: cell-based; details: Homo sapiens, 48 h, SW-620
OVCAR-3 = experiment: NCI-60 SRB screen: ovarian cancer OVCAR-3; format: cell-based, human; details: OVCAR-3
SK-MEL-28 = experiment: NCI-60 SRB screen: melanoma SK-MEL-28; format: cell-based, human; details: SK-MEL-28
T-47D = experiment: NCI-60 SRB screen: breast cancer T-47D; format: cell-based, human; details: T-47D
HCT-116 = experiment: NCI-60 SRB screen: colon cancer HCT-116; format: cell-based; details: Homo sapiens, 48 h, HCT-116
786-0 = experiment: NCI-60 SRB screen: renal cancer 786-0; format: cell-based, human; details: 786-0
U251 = experiment: NCI-60 SRB screen: CNS cancer U251; format: cell-based; details: Homo sapiens, U251
[1] = tested on: 60 human tumor cell lines; experiment: cells
LOX IMVI = experiment: NCI-60 SRB screen: melanoma LOX IMVI; format: cell-based, human
Breast cancer subpanel = experiment: NCI-60 screen, subpanel Breast cancer
Prostate cancer subpanel = experiment: NCI-60 screen, subpanel Prostate cancer
SK-OV-3 = experiment: NCI-60 SRB screen: ovarian cancer SK-OV-3; format: cell-based, human; details: SK-OV-3
UACC-62 = experiment: NCI-60 SRB screen: melanoma UACC-62; format: cell-based, human; details: UACC-62
SK-MEL-5 = experiment: NCI-60 SRB screen: melanoma SK-MEL-5; format: cell-based, human; details: SK-MEL-5
SR = experiment: NCI-60 SRB screen: leukemia SR; format: cell-based; details: Homo sapiens, 48 h
BT-549 = experiment: NCI-60 SRB screen: breast cancer BT-549; format: cell-based, human; details: BT-549
CNS cancer subpanel = experiment: NCI-60 screen, subpanel CNS cancer
COLO 205 = experiment: NCI-60 SRB screen: colon cancer COLO 205; format: cell-based, human; details: COLO 205
NCI-H226 = experiment: NCI-60 SRB screen: non-small cell lung cancer NCI-H226; format: cell-based, human; details: NCI-H226
MALME-3M = experiment: NCI-60 SRB screen: melanoma MALME-3M; format: cell-based, human; details: MALME-3M
MDA-MB-231/ATCC = experiment: NCI-60 SRB screen: breast cancer MDA-MB-231/ATCC; format: cell-based; details: Homo sapiens, 48 h
SK-MEL-2 = experiment: NCI-60 SRB screen: melanoma SK-MEL-2; format: cell-based, human; details: SK-MEL-2
Ovarian Cancer subpanel = experiment: NCI-60 screen, subpanel Ovarian Cancer
SNB-75 = experiment: NCI-60 SRB screen: CNS cancer SNB-75; format: cell-based, human; details: SNB-75
OVCAR-8 = experiment: NCI-60 SRB screen: ovarian cancer OVCAR-8; format: cell-based, human; details: OVCAR-8
TK-10 = experiment: NCI-60 SRB screen: renal cancer TK-10; format: cell-based, human; details: TK-10
NCI/ADR-RES = experiment: NCI-60 SRB screen: ovarian cancer NCI/ADR-RES; format: cell-based, human
Colon Cancer subpanel = experiment: NCI-60 screen, subpanel Colon Cancer
MCF7 = experiment: NCI-60 SRB screen: breast cancer MCF7; format: cell-based; details: Homo sapiens, 48 h, MCF7
[2] = Homo sapiens, five concentrations, 48 h, SRB, read-out: GI50
[3] = single dose 10 µM, read-out: Percentage Cell Growth
[4] = five concentrations, SRB, read-out: GI50

In the case of `C=C(C)[C@@H]1CC[C@]2(C(=O)OC)CC[C@]3(C)[C@H](CC[C@@H]4[C@@]5(C)CCC(=NOCCC(=NOCCC#N)NCCC#N)C(C)(C)[C@@H]5CC[C@]43C)[C@@H]12` [Compound 21], the GI50 (SF-268; [2]) is reported as 11.4 µM, the “Percentage Cell Growth” value (SF-268; single dose 10 µM) is reported as 29.14% and the “Percentage Cell Growth” value (HOP-62; single dose 10 µM) is reported as 32.54%. For the same molecule, the GI50 (HOP-62; [2]) was 12.5 µM, the “Percentage Cell Growth” value (HS 578T; single dose 10 µM) was 24.26% and the GI50 (HS 578T; [2]) was 30.2 µM. The “Percentage Cell Growth” value (CAKI-1; single dose 10 µM) was 18.52%, the GI50 (CAKI-1; [2]) was 10.2 µM and the “Percentage Cell Growth” value (HCT-15; single dose 10 µM) was 34.28%. The GI50 (HCT-15; [2]) was 5.77 µM, the activity at 10 µM (SW-620; [3]) was 22% and the GI50 (SW-620; [4]) was 4.45 µM. For the same molecule, the GI50 (OVCAR-3; [2]) was 5.17 µM, the “Percentage Cell Growth” value (OVCAR-3; single dose 10 µM) was −34.55% and the GI50 (SK-MEL-28; [2]) was 17.1 µM. The “Percentage Cell Growth” value (SK-MEL-28; single dose 10 µM) was 29.25%, the GI50 (T-47D; Homo sapiens, T47D, five concentrations, 48 h, SRB, read-out: GI50) was 3.47 µM and the “Percentage Cell Growth” value (T-47D; single dose 10 µM) was 15.11%. For the same molecule, the activity at 10 µM (HCT-116; [3]) was 4.16%, the GI50 (HCT-116; [4]) was 2.89 µM and the “Percentage Cell Growth” value (786-0; single dose 10 µM) was −11.47%. For the same molecule, the GI50 (786-0; [2]) was 6.42 µM, the activity at 10 µM (U251; U-251, 48 h, single dose 10 µM, read-out: Percentage Cell Growth) was -39.7% and the GI50 (U251; U-251, five concentrations, 48 h, SRB, read-out: GI50) was 4.3 µM. For the same molecule, the GI50 ([1]; read-out: GI50 ranges against all panels of NCI60) was 2.02 to 50 µM, the GI50 ([1]; read-out: MID a, average sensitivity of all cell line (GI50-MID)) was 10.2 µM and the GI50 (LOX IMVI; [2]) was 4.32 µM. For the same molecule, the “Percentage Cell Growth” value (LOX IMVI; single dose 10 µM) was 14.56%, the “MID b, average sensitivity of all cell line of particular subpanel” value (“MID b, average sensitivity” for short) (Breast cancer subpanel) was 10.16 µM and the “Selectivity, ratio MID a: MID b” value (Breast cancer subpanel) was 1.00. For the same molecule, the “MID b, average sensitivity” value (Prostate cancer subpanel) was 7.83 µM, the “Selectivity, ratio MID a: MID b” value (Prostate cancer subpanel) was 1.31 and the GI50 (SK-OV-3; [2]) was 10.8 µM. For the same molecule, the “Percentage Cell Growth” value (SK-OV-3; single dose 10 µM) was 34.60%, the GI50 (UACC-62; [2]) was 2.32 µM and the “Percentage Cell Growth” value (UACC-62; single dose 10 µM) was −25.76%. For the same molecule, the GI50 (SK-MEL-5; [2]) was 3.02 µM, the “Percentage Cell Growth” value (SK-MEL-5; single dose 10 µM) was −84.68% and the activity at 10 µM (SR; [3]) was 1.86%. For the same molecule, the GI50 (SR; [4]) was 2.87 µM, the “Percentage Cell Growth” value (BT-549; single dose 10 µM) was 4.40% and the GI50 (BT-549; [2]) was 11.3 µM. For the same molecule, the “MID b, average sensitivity” value (CNS cancer subpanel) was 15.32 µM, the “Selectivity, ratio MID a: MID b” value (CNS cancer subpanel) was 0.67 and the “Percentage Cell Growth” value (COLO 205; single dose 10 µM) was 17.60%. For the same molecule, the GI50 (COLO 205; [2]) was 9.02 µM, the GI50 (NCI-H226; [2]) was 5.43 µM and the “Percentage Cell Growth” value (NCI-H226; single dose 10 µM) was 2.42%. For the same molecule, the GI50 (MALME-3M; [2]) was 11.8 µM, the “Percentage Cell Growth” value (MALME-3M; single dose 10 µM) was 25.27% and the activity at 10 µM (MDA-MB-231/ATCC; MDA-MB-231/ATCC, single dose 10 µM, read-out: Percentage Cell Growth) was 5.09%. For the same molecule, the GI50 (MDA-MB-231/ATCC; MDA-MB-231, MDA-MB-31/ATCC, five concentrations, SRB, read-out: GI50) was 10.3 µM, the GI50 (SK-MEL-2; [2]) was 13.8 µM and the “Percentage Cell Growth” value (SK-MEL-2; single dose 10 µM) was 36.23%. For the same molecule, the “MID b, average sensitivity” value (Ovarian Cancer subpanel) was 11.86 µM, the “Selectivity, ratio MID a: MID b” value (Ovarian Cancer subpanel) was 0.86 and the GI50 (SNB-75; [2]) was 31.2 µM. The “Percentage Cell Growth” value (SNB-75; single dose 10 µM) was 18.44%, the GI50 (OVCAR-8; [2]) was 9.66 µM and the “Percentage Cell Growth” value (OVCAR-8; single dose 10 µM) was 13.17%. The GI50 (TK-10; [2]) was 13.8 µM, the “Percentage Cell Growth” value (TK-10; single dose 10 µM) was 37.88% and the GI50 (NCI/ADR-RES; [2]) was 13.5 µM. For the same molecule, the “Percentage Cell Growth” value (NCI/ADR-RES; single dose 10 µM) was 17.06%, the “MID b, average sensitivity” value (Colon Cancer subpanel) was 7.42 µM and the “Selectivity, ratio MID a: MID b” value (Colon Cancer subpanel) was 1.38. For the same molecule, the activity at 10 µM (MCF7; [3]) was 12.4% and the GI50 (MCF7; [4]) was 3.67 µM.
